Laboratory results from patent US7452887B2, “Quinoline- and isoquinoline-based compounds exhibiting ATP-utilizing enzyme inhibitory activity, and compositions, and uses thereof” (Amphora Discovery Corporation, priority 2004, dated 2008).

Assays:
Test in all cases: HTS ATP-utilizing enzyme assay, off-chip mobility-shift (Caliper HTS 250)
Conditions in all cases: test compound 10 μM, kinase listed = active (greater than six-sigma from the mean activity of inactive compounds)
ROCK2 = ROCK2 (Homo sapiens, UniProt O75116); format: biochemical
ROCK2, sequence (O75116 whole entry): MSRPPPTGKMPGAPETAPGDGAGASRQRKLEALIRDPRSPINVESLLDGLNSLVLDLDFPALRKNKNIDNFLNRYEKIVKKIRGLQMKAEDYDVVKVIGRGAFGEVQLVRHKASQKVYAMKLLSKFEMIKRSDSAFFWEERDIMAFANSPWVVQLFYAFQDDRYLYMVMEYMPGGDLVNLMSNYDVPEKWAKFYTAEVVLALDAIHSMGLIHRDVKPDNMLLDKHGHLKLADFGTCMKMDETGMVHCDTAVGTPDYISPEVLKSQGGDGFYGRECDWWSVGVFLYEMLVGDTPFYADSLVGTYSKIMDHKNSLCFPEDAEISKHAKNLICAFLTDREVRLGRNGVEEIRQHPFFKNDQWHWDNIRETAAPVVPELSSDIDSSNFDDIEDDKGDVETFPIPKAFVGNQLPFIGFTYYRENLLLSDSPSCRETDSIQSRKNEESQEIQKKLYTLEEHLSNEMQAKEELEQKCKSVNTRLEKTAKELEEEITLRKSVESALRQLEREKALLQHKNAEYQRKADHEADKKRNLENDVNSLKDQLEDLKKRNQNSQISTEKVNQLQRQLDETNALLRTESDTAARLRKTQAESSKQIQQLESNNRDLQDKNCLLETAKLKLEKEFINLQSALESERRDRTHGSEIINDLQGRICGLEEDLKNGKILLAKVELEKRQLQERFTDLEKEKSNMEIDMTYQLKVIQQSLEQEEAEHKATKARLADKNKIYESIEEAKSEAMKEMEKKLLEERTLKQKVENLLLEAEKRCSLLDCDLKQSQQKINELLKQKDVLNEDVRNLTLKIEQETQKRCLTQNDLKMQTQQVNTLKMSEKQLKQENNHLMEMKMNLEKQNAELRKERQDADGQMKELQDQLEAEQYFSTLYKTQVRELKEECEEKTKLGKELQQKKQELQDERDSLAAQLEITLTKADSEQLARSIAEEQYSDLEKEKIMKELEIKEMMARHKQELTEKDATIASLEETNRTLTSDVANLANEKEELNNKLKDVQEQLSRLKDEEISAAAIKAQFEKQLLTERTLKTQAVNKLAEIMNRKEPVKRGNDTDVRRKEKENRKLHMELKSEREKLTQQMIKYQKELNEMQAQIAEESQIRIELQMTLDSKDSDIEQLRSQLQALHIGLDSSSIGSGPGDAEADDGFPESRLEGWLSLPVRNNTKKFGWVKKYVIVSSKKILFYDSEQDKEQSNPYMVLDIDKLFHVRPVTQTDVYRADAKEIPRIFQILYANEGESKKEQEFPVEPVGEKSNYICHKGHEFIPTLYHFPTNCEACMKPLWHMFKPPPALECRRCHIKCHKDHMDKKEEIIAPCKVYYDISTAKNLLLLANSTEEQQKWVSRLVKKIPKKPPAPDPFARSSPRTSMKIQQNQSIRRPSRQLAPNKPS
Procedure, shortened: (§1)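 Single-point screen, 10 μM compound; kinase + peptide substrate, HEPES pH 7.5/Triton X-100/BSA; 2.5 hrs, 20–22° C.; EDTA stop. Readout: substrate vs phosphoproduct ratio by off-chip mobility shift. Hits called at six-sigma limits.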

PDGFR-α = PDGFR-α (Homo sapiens, UniProt P16234); format: biochemical
PDGFR-α, sequence (P16234 24-1089): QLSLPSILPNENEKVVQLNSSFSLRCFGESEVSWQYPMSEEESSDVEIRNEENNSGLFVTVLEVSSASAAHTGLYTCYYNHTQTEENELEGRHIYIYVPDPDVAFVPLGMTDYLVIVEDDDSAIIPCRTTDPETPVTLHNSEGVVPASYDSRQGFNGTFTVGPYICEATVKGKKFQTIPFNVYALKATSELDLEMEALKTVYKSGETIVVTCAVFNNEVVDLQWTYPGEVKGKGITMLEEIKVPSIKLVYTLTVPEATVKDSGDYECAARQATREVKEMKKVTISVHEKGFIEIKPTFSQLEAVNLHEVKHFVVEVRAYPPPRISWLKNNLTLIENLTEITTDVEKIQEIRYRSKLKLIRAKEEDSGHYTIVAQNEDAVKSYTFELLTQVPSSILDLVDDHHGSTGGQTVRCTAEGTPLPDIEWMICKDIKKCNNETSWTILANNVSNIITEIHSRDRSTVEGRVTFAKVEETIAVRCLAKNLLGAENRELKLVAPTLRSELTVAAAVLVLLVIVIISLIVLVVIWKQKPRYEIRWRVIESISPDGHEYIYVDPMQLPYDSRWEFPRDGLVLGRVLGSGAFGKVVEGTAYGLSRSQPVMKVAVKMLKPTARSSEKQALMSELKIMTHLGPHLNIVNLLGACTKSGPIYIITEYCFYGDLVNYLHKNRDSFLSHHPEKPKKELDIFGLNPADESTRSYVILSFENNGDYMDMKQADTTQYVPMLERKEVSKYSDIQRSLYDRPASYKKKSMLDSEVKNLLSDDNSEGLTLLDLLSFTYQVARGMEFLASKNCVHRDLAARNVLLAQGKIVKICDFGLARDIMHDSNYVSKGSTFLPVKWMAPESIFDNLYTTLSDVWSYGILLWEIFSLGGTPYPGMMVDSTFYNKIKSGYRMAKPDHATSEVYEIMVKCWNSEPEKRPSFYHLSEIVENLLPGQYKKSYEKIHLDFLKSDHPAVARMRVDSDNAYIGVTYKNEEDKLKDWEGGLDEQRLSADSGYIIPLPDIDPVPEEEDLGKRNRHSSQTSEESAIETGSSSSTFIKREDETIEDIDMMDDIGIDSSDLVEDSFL
Procedure, shortened: as §1

AKT3 = AKT3 (Homo sapiens, UniProt Q9Y243); format: biochemical
AKT3, sequence (Q9Y243 whole entry): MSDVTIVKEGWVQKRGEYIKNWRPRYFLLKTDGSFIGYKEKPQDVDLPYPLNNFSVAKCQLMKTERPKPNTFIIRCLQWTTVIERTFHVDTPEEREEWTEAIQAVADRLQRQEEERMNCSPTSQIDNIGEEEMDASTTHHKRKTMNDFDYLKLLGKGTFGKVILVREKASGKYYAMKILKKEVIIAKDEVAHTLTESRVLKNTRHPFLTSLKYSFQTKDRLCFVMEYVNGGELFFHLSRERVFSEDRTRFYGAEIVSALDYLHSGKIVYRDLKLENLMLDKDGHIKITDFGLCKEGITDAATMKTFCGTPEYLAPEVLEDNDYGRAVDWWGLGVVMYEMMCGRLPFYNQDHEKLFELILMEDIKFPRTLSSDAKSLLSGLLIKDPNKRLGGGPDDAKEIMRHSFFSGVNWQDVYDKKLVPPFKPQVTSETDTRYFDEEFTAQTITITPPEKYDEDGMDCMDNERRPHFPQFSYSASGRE
Procedure, shortened: as §1

SRC = SRC (Homo sapiens, UniProt P12931); format: biochemical
Procedure, shortened: as §1

SYK = SYK (Homo sapiens, UniProt P43405); format: biochemical
Procedure, shortened: as §1

ABL1 = ABL1 (Homo sapiens, UniProt P00519); format: biochemical
Procedure, shortened: as §1

LCK = LCK (Homo sapiens, UniProt P06239); format: biochemical
Procedure, shortened: as §1

CK2 = format: biochemical, human
Excerpt: The following procedures describe the reagent and plate preparation for a HTS of an ATP-utilizing enzyme, such as a protein kinase, run in an off-chip mobility-shift assay format. The following provides an HTS protocol for running a protein kinase HTS screen on a Caliper HTS 250 microfluidics system. The following parameters are dependent on the protein kinase used and can be determined by one skilled in the art as part of a typical assay development process. For example, the peptide substrate used can be identified from the current literature, by screening a peptide library of potential protein kinase substrates, or by other applicable means accepted in the field.
The following table provides typical screen assay parameters appropriate for a Caliper HTS 250 microfluidics system.
The reagents and buffers listed in the following table are generally applicable for developing and running an HTS screen on a human protein kinase using the Caliper HTS 250 system.
The following reagents were prepared using the previously described buffers.
A 2× Master Buffer solution was prepared by combining 200 mL of 1 M HEPES, pH 7.5, 2 mL of 10% Triton X-100, 20 mL of 10% BSA, and 778 mL of H2O.
A 2.5× Substrate Buffer solution was prepared by combining 177.408 mL of 2× Master Buffer, 0.887 mL of 1 mM peptide-X, and 176.521 mL of H2O.
A 1.55× Termination Buffer solution was prepared by combining 762.05 mL of 2× Master Buffer, 95.1 mL of 0.5 M EDTA, and 666.94 mL of H2O. […]
Assays to determine the kinase inhibitory activity of compounds of the present disclosure were performed using a Caliper HTS 250 microfluidics device, Greiner U-bottom assay plates, a Multidrop for transfer of reagents, and Biomek FX (AMNCBM03) software. […] The inhibition of the ATP-utilizing enzyme, such as a particular protein kinase, was determined by measuring the ratio of the peptide substrate to phosphorylated product for each well of the assay plate using the Caliper HTS 250 system. […]

MSK1 = MSK1 (Homo sapiens, UniProt O75582); format: biochemical
MSK1, sequence (O75582 whole entry): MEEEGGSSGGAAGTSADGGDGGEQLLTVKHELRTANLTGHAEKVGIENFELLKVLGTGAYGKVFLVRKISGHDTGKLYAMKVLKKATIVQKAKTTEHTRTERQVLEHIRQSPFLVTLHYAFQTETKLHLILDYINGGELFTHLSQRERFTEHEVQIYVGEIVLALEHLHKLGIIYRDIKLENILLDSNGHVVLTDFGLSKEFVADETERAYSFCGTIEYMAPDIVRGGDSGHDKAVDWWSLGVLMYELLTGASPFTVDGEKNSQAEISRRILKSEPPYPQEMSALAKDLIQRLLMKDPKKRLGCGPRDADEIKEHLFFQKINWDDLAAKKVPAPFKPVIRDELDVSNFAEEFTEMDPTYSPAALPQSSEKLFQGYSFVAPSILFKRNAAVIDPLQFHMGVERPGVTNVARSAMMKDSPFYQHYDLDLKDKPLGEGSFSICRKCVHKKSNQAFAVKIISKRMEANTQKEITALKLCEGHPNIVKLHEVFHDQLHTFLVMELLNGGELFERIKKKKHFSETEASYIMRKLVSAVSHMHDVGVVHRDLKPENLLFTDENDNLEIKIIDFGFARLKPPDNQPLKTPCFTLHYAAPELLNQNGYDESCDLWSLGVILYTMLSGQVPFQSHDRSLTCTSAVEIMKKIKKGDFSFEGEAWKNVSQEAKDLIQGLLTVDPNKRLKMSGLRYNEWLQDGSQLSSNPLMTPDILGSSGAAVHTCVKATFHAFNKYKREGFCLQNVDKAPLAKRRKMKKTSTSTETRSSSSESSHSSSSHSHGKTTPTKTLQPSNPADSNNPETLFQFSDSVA
Procedure, shortened: as §1

GSK-3-β = GSK-3-β (Homo sapiens, UniProt P49841); format: biochemical
GSK-3-β, sequence (P49841 whole entry): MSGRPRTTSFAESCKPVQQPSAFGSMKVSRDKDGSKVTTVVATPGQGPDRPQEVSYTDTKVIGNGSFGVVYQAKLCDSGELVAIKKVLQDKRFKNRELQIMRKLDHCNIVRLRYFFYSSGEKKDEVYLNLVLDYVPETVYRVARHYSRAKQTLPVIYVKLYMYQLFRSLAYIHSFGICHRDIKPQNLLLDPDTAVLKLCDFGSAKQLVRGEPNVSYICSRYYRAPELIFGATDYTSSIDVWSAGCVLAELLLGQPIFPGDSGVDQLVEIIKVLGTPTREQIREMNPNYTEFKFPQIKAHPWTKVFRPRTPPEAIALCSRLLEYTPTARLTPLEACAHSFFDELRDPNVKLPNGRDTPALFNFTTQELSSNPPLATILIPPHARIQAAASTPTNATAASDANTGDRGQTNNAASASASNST
Procedure, shortened: as §1

CDK5 = CDK5 (Homo sapiens, UniProt Q00535); format: biochemical
CDK5, sequence (Q00535 whole entry): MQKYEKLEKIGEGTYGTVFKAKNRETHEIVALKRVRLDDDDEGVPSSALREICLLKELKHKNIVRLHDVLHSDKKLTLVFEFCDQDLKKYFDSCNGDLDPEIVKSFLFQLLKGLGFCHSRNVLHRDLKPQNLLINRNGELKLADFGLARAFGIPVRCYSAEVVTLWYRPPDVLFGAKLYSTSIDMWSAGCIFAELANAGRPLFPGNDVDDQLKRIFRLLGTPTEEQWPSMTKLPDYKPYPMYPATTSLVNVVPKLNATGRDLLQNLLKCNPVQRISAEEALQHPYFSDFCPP
CDK5, sequence (Q15078 whole entry partner): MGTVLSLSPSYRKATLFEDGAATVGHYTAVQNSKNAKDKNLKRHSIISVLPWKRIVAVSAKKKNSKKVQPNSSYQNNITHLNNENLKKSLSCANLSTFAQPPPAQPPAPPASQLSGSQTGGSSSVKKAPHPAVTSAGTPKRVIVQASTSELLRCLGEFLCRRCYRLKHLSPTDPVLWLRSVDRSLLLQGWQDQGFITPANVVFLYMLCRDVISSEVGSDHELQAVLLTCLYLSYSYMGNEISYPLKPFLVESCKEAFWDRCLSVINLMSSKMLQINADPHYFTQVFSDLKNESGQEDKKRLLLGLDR
Procedure, shortened: as §1

PKA = PKA (Homo sapiens, UniProt P17612); format: biochemical
Procedure, shortened: as §1

AKT1 = AKT1 (Homo sapiens, UniProt P31749); format: biochemical
Procedure, shortened: as §1

CN1CCN(c2ccc(Nc3ccnc4ccc(-c5ccc(O)cc5)cc34)cc2)CC1 [4-(4-(4-(4-methylpiperazin-1-yl)phenylamino)quinolin-6-yl)phenol]
Activity (ROCK2): ROCK2

COc1ccc(-c2ccc3nccc(N(C)c4ccc(N5CCN(C)CC5)cc4)c3c2)cc1 [6-(4-methoxyphenyl)-N-methyl-N-(4-(4-methylpiperazin-1-yl)phenyl)quinolin-4-amine]
Activity (PDGFR-α): PDGFR-α

c1ccc(-c2ccc3nccc(Nc4ccc(N5CCNCC5)cc4)c3c2)cc1 [6-phenyl-N-(4-(piperazin-1-yl)phenyl)quinolin-4-amine]
Activity (PDGFR-α): PDGFR-α

CN1CCN(c2ccc(Nc3ccnc4ccc(-c5cccc6ccccc56)cc34)cc2)CC1 [N-(4-(4-methylpiperazin-1-yl)phenyl)-6-(naphthalen-1-yl)quinolin-4-amine]
Activity (AKT3): AKT3 | Activity (SRC): SRC | Activity (SYK): SYK | Activity (ABL1): ABL1 | Activity (LCK): LCK

CN1CCN(c2ccc(Nc3ccnc4ccc(-c5ccc6ccccc6c5)cc34)cc2)CC1 [N-(4-(4-methylpiperazin-1-yl)phenyl)-6-(naphthalen-2-yl)quinolin-4-amine]
Activity (SYK): SYK

CN1CCN(c2ccc(Nc3ccnc4ccc(-c5ccncc5)cc34)cc2)CC1 [N-(4-(4-methylpiperazin-1-yl)phenyl)-6-(pyridin-4-yl)quinolin-4-amine]
Activity (CK2): CK2 | Activity (MSK1): MSK1 | Activity (ROCK2): ROCK2 | Activity (GSK-3-β): GSK-3-β | Activity (AKT3): AKT3 | Activity (CDK5): CDK5 | Activity (PKA): PKA | Activity (AKT1): AKT1
